In ChEMBL document CHEMBL1133604, “1-imidazolyl(alkyl)-substituted di- and tetrahydroquinolines and analogues: syntheses and evaluation of dual inhibitors of thromboxane A(2) synthase and aromatase” (J Med Chem, 2000):
pIC50: −log10 of the molar value. Activity calls are given as the source filed them. No cut-off for these calls is given here.

What was measured:
Thromboxane-A synthase [1] = target: T1, Thromboxane-A synthase (Homo sapiens, UniProt P24557); format: tissue-based, Blood
T1 sequence (P24557 whole entry): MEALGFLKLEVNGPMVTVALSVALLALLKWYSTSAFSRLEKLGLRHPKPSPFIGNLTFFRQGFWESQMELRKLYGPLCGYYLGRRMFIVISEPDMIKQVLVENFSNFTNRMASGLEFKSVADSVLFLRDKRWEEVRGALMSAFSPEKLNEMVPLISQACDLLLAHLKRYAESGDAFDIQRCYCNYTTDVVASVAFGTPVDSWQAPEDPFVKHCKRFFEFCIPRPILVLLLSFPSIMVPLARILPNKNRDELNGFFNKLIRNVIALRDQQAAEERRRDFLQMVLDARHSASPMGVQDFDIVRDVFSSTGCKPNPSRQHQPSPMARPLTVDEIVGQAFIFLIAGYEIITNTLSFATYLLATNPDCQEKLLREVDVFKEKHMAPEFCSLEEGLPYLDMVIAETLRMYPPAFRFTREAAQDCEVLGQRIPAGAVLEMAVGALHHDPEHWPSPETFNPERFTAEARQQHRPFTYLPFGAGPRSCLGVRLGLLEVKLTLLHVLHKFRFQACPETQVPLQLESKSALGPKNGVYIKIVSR

[2] = target: T2, Steroid 17-alpha-hydroxylase/17,20 lyase (Rattus norvegicus, UniProt P11715)
T2 sequence (P11715 whole entry): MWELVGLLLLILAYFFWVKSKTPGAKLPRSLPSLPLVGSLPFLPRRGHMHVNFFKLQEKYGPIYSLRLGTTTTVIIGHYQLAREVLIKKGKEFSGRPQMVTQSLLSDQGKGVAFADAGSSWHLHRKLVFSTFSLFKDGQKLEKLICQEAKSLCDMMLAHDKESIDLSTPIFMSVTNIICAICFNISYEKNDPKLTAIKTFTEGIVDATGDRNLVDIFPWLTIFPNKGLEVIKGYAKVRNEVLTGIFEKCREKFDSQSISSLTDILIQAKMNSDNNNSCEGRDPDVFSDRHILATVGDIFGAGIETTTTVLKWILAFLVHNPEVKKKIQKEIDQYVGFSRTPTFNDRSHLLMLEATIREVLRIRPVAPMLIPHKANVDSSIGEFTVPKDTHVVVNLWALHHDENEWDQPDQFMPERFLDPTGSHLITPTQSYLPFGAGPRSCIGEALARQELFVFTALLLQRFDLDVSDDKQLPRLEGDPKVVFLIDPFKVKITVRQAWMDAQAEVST

Bos taurus [3] = species: Bos taurus
cells = format: functional; settings: Bos taurus
Bos taurus [4] = species: Bos taurus; remark: listed apart in the source
[5] = target: T2, Steroid 17-alpha-hydroxylase/17,20 lyase; remark: listed apart in the source
Thromboxane-A synthase [6] = target: T1, Thromboxane-A synthase

SMILES	pIC50 (Thromboxane-A synthase [1])	inhibition at 125 µM [2] [%]	further results
c1cn(CCC2CCCc3sccc32)cn1 (stereo unspecified)	5.91		
C(/Cn1ccnc1)=C1\CCCc2occc21	5.39		
c1cnc2c(c1)C(Cn1ccnc1)CCC2 (stereo unspecified)	5.70	11	
C1=C(CCn2ccnc2)c2cccnc2CC1	6.54	21	NI (Bos taurus [3]): inactive; pIC50 (cells): 6.76; NI (Bos taurus [4]): inactive
c1ccc2c(c1)CCCC2CCn1ccnc1 (stereo unspecified)	5.47	> 80	pIC50 [5]: 4.70
C(/Cn1ccnc1)=C1/CCCc2sccc21	5.77		
c1cnc2c(c1)C(n1ccnc1)CCC2 (stereo unspecified)		14	
c1cc2ccc(Cn3ccnc3)cc2cn1	5.27		
C1=C(Cn2ccnc2)c2cccnc2CC1	5.82	69	
C(/Cn1ccnc1)=C1\CCCc2sccc21	5.90		
c1cnc2c(c1)C(CCCn1ccnc1)CCC2 (stereo unspecified)	5.64	59	
C1=C(CCCn2ccnc2)c2cccnc2CC1	6.17	79	
c1cn(CCC2CCCc3occc32)cn1 (stereo unspecified)	6.00		
O=C(OC1CCCc2ncccc21)n1ccnc1 (stereo unspecified)			pIC50 (Thromboxane-A synthase [6]): 5.80
C(/Cn1ccnc1)=C1/CCCc2occc21	5.45		
c1cc(CCn2ccnc2)c2ccsc2c1	5.28		
c1cc(CCn2ccnc2)c2cccnc2c1	5.92	22	
c1cnc2c(c1)C(CCn1ccnc1)CCC2 (stereo unspecified)	6.20	49	pIC50 [5]: 3.90
